The numbers were not newly measured in PMC3229099 (Acta biochimica Polonica, 2011), which cites them from elsewhere.

Data set [1] has as its system δ receptor versus μ receptor. To be noted: ref Pawlak et al, 1997.
Data set [2] has as its system opioid δ receptors. The settings on record: in vivo studies with the use of selective opioid receptor antagonists; ref Kotlińska et al, 2009.

As for “amide of cyclo[N^ε, N^δ -carbonyl-D-Lys^2, Dap^5 ]enkephalin”, the GPI/MVD ratio in data set [1] is recorded as 0.33. In addition, the “receptor type mediating antinociception in vivo” value in data set [2] is listed as “induced antinociception predominantly through opioid δ receptors”.
